Molecules are shown by their SMILES.
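Also: ALL cell lines in 384-well plates, five doses spanning 10,000-fold, each plate scaled between vehicle and 100 µmol/L benzalkonium chloride controls, sDSS an adapted area-under-curve metric.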

The subject of the first assay is MOLT-14. As to the kind of experiment: selective drug sensitivity score (sDSS, relative to normal bone marrow) (sDSS (score)); higher = more potent and effective on the cell line relative to normal bone marrow cells. Particulars: 72 h.
Consider `CCCCCOC(=O)Nc1nc(=O)n([C@@H]2O[C@H](C)[C@@H](O)[C@H]2O)cc1F` [Capecitabine] (top concentration 10000 nM), for which the “selective drug sensitivity score” value was -0.06.
Turning to `Nc1nc(Cl)nc2c1ncn2[C@H]1C[C@H](O)[C@@H](CO)O1` [Cladribine] (top concentration 1000 nM), the “selective drug sensitivity score” value stood at 5.66.
As to `CCN(CC)CCOc1ccc(/C(=C(/Cl)c2ccccc2)c2ccccc2)cc1` [Clomifene] (top concentration 10000 nM), the “selective drug sensitivity score” value is -0.28.
On the same count and under the same terms, with `CO[C@@H](C(=O)N1Cc2[nH]nc(NC(=O)c3ccc(N4CCN(C)CC4)cc3)c2C1)c1ccccc1` [Danusertib] (top concentration 10000 nM) the figure was 15.5; with `CC[C@@](C)(Nc1ccnc(-c2c[nH]c3ncccc23)n1)C(=O)NCC(F)(F)F` [Decernotinib] (top concentration 10000 nM), -3.94.
The same measure, in the same setting: with `CN1CCN(c2ccc3nc(-c4c(N)c5c(F)cccc5[nH]c4=O)[nH]c3c2)CC1` [Dovitinib] (top concentration 10000 nM) the figure was 0.46.
For `CC(C)(O)CNc1nc(Nc2ccnc(C(F)(F)F)c2)nc(-c2cccc(C(F)(F)F)n2)n1` [Enasidenib] (top concentration 10000 nM), the “selective drug sensitivity score” value is -0.8.
Still for that read-out and setting: with `CN1CCN(c2ccc(C(=O)Nc3n[nH]c4ccc(Cc5cc(F)cc(F)c5)cc34)c(NC3CCOCC3)c2)CC1` [Entrectinib] (top concentration 1000 nM) the figure was -0.7; with `CNC(=O)c1ccc(N2C(=S)N(c3ccc(C#N)c(C(F)(F)F)c3)C(=O)C2(C)C)cc1F` [Enzalutamide] (top concentration 10000 nM), -0.02; with `Cn1cc(C2=C(c3cn(C4CCN(Cc5ccccn5)CC4)c4ccccc34)C(=O)NC2=O)c2ccccc21` [Enzastaurin] (top concentration 10000 nM), 6.06.
On the same count and under the same terms, with `NS(=O)(=O)NCCNc1nonc1/C(=N/O)Nc1ccc(F)c(Br)c1` [Epacadostat] (top concentration 10000 nM) the figure was -0.26; with `CCOc1ccccc1-n1c(C(C)N2CCN(C(=O)COc3ccc(Cl)cc3)CC2)nc2ccccc2c1=O` (stereo not given) [Erastin] (top concentration 10000 nM), 8.54; with `COc1cc(OC)cc(N(CCNC(C)C)c2ccc3ncc(-c4cnn(C)c4)nc3c2)c1` [Erdafitinib] (top concentration 1000 nM), -0.56.
For the molecule `CC(C)(C)NC(=O)[C@H]1CC[C@H]2[C@@H]3CC[C@H]4NC(=O)C=C[C@]4(C)[C@H]3CC[C@]12C` [Finasteride] (top concentration 10000 nM), the “selective drug sensitivity score” value is -0.52.
Same read-out and setting: with `O=c1[nH]c(=O)n([C@H]2C[C@H](O)[C@@H](CO)O2)cc1F` [Floxuridine] (top concentration 10000 nM) the figure was 27.1.
On the same count and under the same terms, the result for `CNc1nc(Nc2cn(C(C)(C)C#N)nc2C)ncc1C(F)(F)F` [GNE-0877] (top concentration 1000 nM) reads 0; that for `CCCc1cc(C)[nH]c(=O)c1CNC(=O)c1cc(-c2ccnc(N3CCN(C)CC3)c2)cc2c1cnn2C(C)C` [GSK343] (top concentration 1000 nM), 2; that for `O=C(O)c1ccc(O)c2ncccc12` [IOX-1] (top concentration 100000 nM), 5.64.

Another assay concerns KASUMI-2. Described as above. Particulars: 72 h.
As for `CCCCCOC(=O)Nc1nc(=O)n([C@@H]2O[C@H](C)[C@@H](O)[C@H]2O)cc1F` [Capecitabine] (top concentration 10000 nM), the “selective drug sensitivity score” value was -0.06.
As to `Nc1nc(Cl)nc2c1ncn2[C@H]1C[C@H](O)[C@@H](CO)O1` [Cladribine] (top concentration 1000 nM), the “selective drug sensitivity score” value is 6.76.
The same measure, in the same setting: with `CCN(CC)CCOc1ccc(/C(=C(/Cl)c2ccccc2)c2ccccc2)cc1` [Clomifene] (top concentration 10000 nM) the figure was 0.82.
In the case of `CO[C@@H](C(=O)N1Cc2[nH]nc(NC(=O)c3ccc(N4CCN(C)CC4)cc3)c2C1)c1ccccc1` [Danusertib] (top concentration 10000 nM), the “selective drug sensitivity score” value was found to be 9.14.
Same read-out and setting: with `CC[C@@](C)(Nc1ccnc(-c2c[nH]c3ncccc23)n1)C(=O)NCC(F)(F)F` [Decernotinib] (top concentration 10000 nM) the figure was -1.84.
For the molecule `CN1CCN(c2ccc3nc(-c4c(N)c5c(F)cccc5[nH]c4=O)[nH]c3c2)CC1` [Dovitinib] (top concentration 10000 nM), the “selective drug sensitivity score” value was -0.14.
With `CC(C)(O)CNc1nc(Nc2ccnc(C(F)(F)F)c2)nc(-c2cccc(C(F)(F)F)n2)n1` [Enasidenib] (top concentration 10000 nM), the “selective drug sensitivity score” value was 4.
Regarding `CN1CCN(c2ccc(C(=O)Nc3n[nH]c4ccc(Cc5cc(F)cc(F)c5)cc34)c(NC3CCOCC3)c2)CC1` [Entrectinib] (top concentration 1000 nM), the “selective drug sensitivity score” value was -1.2.
As to `CNC(=O)c1ccc(N2C(=S)N(c3ccc(C#N)c(C(F)(F)F)c3)C(=O)C2(C)C)cc1F` [Enzalutamide] (top concentration 10000 nM), the “selective drug sensitivity score” value was -0.82.
As to `Cn1cc(C2=C(c3cn(C4CCN(Cc5ccccn5)CC4)c4ccccc34)C(=O)NC2=O)c2ccccc21` [Enzastaurin] (top concentration 10000 nM), the “selective drug sensitivity score” value amounted to 2.06.
On the same count and under the same terms, the result for `NS(=O)(=O)NCCNc1nonc1/C(=N/O)Nc1ccc(F)c(Br)c1` [Epacadostat] (top concentration 10000 nM) reads -0.26; that for `CCOc1ccccc1-n1c(C(C)N2CCN(C(=O)COc3ccc(Cl)cc3)CC2)nc2ccccc2c1=O` (stereo not given) [Erastin] (top concentration 10000 nM), 19.4.
Same read-out and setting: with `COc1cc(OC)cc(N(CCNC(C)C)c2ccc3ncc(-c4cnn(C)c4)nc3c2)c1` [Erdafitinib] (top concentration 1000 nM) the figure was -0.56.
For the molecule `CC(C)(C)NC(=O)[C@H]1CC[C@H]2[C@@H]3CC[C@H]4NC(=O)C=C[C@]4(C)[C@H]3CC[C@]12C` [Finasteride] (top concentration 10000 nM), the “selective drug sensitivity score” value was found to be 0.78.
The same measure, in the same setting: with `O=c1[nH]c(=O)n([C@H]2C[C@H](O)[C@@H](CO)O2)cc1F` [Floxuridine] (top concentration 10000 nM) the figure was 33.4; with `CNc1nc(Nc2cn(C(C)(C)C#N)nc2C)ncc1C(F)(F)F` [GNE-0877] (top concentration 1000 nM), 1.
The same measure, in the same setting: with `CCCc1cc(C)[nH]c(=O)c1CNC(=O)c1cc(-c2ccnc(N3CCN(C)CC3)c2)cc2c1cnn2C(C)C` [GSK343] (top concentration 1000 nM) the figure was 0.
Regarding `O=C(O)c1ccc(O)c2ncccc12` [IOX-1] (top concentration 100000 nM), the “selective drug sensitivity score” value came to 2.04.

The subject of a further assay is PEER. The assay is described as above. The settings on record: 72 h.
On to `CCCCCOC(=O)Nc1nc(=O)n([C@@H]2O[C@H](C)[C@@H](O)[C@H]2O)cc1F` [Capecitabine] (top concentration 10000 nM), for which the “selective drug sensitivity score” value was -0.06.
Still for that read-out and setting: the result for `Nc1nc(Cl)nc2c1ncn2[C@H]1C[C@H](O)[C@@H](CO)O1` [Cladribine] (top concentration 1000 nM) reads -12.2; that for `CCN(CC)CCOc1ccc(/C(=C(/Cl)c2ccccc2)c2ccccc2)cc1` [Clomifene] (top concentration 10000 nM), 1.02.
As to `CO[C@@H](C(=O)N1Cc2[nH]nc(NC(=O)c3ccc(N4CCN(C)CC4)cc3)c2C1)c1ccccc1` [Danusertib] (top concentration 10000 nM), the “selective drug sensitivity score” value is 21.6.
The same measure, in the same setting: with `CC[C@@](C)(Nc1ccnc(-c2c[nH]c3ncccc23)n1)C(=O)NCC(F)(F)F` [Decernotinib] (top concentration 10000 nM) the figure was -3.84.
The same measure, in the same setting: the result for `CN1CCN(c2ccc3nc(-c4c(N)c5c(F)cccc5[nH]c4=O)[nH]c3c2)CC1` [Dovitinib] (top concentration 10000 nM) reads 0.66.
Take `CC(C)(O)CNc1nc(Nc2ccnc(C(F)(F)F)c2)nc(-c2cccc(C(F)(F)F)n2)n1` [Enasidenib] (top concentration 10000 nM): the “selective drug sensitivity score” value stood at 0.6.
The same measure, in the same setting: with `CN1CCN(c2ccc(C(=O)Nc3n[nH]c4ccc(Cc5cc(F)cc(F)c5)cc34)c(NC3CCOCC3)c2)CC1` [Entrectinib] (top concentration 1000 nM) the figure was 0.9; with `CNC(=O)c1ccc(N2C(=S)N(c3ccc(C#N)c(C(F)(F)F)c3)C(=O)C2(C)C)cc1F` [Enzalutamide] (top concentration 10000 nM), 0.48.

Source of the values: the supplement of paper PMC8967900.
